Reference: US11865086B2, “Cinnamaldehyde derivative compounds and methods of use for cinnamaldehyde derivative compounds nicotine cessation” (Pacific University, priority 2018, dated 2024)
Values belong to the compound of their own block, whether it stands above or below them.

Legend:
CYP2A6 [1] = molecular target: T1, CYP2A6 (Homo sapiens, UniProt P11509); assay: biochemical
T1 sequence (P11509 1-494): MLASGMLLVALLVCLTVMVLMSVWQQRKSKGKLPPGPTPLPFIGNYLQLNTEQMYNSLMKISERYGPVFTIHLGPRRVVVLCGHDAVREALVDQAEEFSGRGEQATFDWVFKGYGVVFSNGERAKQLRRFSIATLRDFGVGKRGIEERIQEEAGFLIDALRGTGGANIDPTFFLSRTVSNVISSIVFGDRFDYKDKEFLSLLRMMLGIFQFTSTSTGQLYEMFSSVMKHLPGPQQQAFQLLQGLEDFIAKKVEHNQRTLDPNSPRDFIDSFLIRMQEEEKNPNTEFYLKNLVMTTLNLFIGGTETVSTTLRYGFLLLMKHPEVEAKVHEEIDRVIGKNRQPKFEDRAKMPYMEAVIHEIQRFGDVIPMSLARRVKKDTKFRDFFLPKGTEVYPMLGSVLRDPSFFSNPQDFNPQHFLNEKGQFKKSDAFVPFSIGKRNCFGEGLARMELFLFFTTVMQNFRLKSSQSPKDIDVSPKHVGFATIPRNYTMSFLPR
Text: (§1) A 96-well plate assay and fluorescence spectroscopy may be used to quantify the product, 7-hydroxycoumarin.
Data was fit using GraphPad Prism.

CYP2A6 [2] = molecular target: T2, CYP2A6 (Homo sapiens, UniProt P11509, K28S/Q25K/Q26K/R27T/W24A); assay: biochemical
T2 sequence (P11509 with tags, fused parts or gaps limits assumed): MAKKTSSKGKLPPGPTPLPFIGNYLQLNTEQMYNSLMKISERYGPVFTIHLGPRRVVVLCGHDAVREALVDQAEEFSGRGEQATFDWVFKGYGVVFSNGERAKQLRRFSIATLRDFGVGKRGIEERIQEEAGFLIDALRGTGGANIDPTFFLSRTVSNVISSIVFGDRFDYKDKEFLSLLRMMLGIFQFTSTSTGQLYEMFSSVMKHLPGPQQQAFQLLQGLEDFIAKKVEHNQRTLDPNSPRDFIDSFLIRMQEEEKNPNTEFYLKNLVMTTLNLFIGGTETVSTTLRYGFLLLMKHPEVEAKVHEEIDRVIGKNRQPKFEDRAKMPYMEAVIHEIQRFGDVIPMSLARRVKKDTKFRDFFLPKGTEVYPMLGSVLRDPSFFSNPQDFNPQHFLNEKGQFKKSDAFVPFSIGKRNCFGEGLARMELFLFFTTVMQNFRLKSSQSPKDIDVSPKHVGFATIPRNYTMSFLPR
Experimental: (§2) Spectral binding studies were conducted using purified heterologously expressed CYP2A6 in Escherichia coli. […] Absorbance changes (A386-A418) may be plotted against added ligand concentrations in order to determine dissociation constants.
(§3) In more detail, the CYP2A6 enzyme may be heterologously expressed in Escherichia coli and purified. The expression vector, pKK2A6dH may be used to express the enzyme. The vector contains a cDNA sequence that codes for human CYP2A6 with a deletion of the N-terminal transmembrane sequence, an alteration of several residues at the modified N-terminus to increase expression, and four histidine residues added at the C-terminus to aid in purification. […] Expression from the vector may be induced with the addition of IPTG to bacterial cultures. δ-Aminolevulinic acid is added during expression to supplement heme biosynthesis. The enzyme may be purified following previously reported protocols. Briefly, following cell disruption, the solubilized enzyme may be purified using Ni^2+-affinity chromatography and cation-exchange (CM sepharose) chromatography, which may lead to protein of high purity and P450 content.

CYP2A6 [3] = molecular target: T1, CYP2A6; assay: in vitro; conditions: recombinant CYP2A6, probe coumarin
Text: (§4) Since this type of inhibition also requires that the inhibitor is initially metabolized by the target enzyme, MBIs may be identified by evaluating the inhibition in the presence and absence of cofactors that are required for activity, such as NADPH for CYPs.

[4] = obtained from PubChem and ChemSpider; cited from earlier work
CYP2A6 [5] = molecular target: T1, CYP2A6; assay: Time-dependent inhibition screen, recombinant CYP2A6 system, coumarin hydroxylase readout; conditions: for Fold difference (with respect to CA): kinact/kI relative to t-CA; for time-dependent inhibition of CYP2A6, result in words: with NADPH, 7-hydroxycoumarin formation
Text: as §4

CYP2A6 [6] = molecular target: T1, CYP2A6; assay: biochemical; remark: listed apart in the source
Text: as §4

recombinant CYP2A13 = molecular target: T3, recombinant CYP2A13 (Homo sapiens, UniProt Q16696); assay: Time-dependent inhibition, recombinant CYP2A13 system, coumarin hydroxylase readout; format: biochemical
T3 sequence (Q16696 1-494): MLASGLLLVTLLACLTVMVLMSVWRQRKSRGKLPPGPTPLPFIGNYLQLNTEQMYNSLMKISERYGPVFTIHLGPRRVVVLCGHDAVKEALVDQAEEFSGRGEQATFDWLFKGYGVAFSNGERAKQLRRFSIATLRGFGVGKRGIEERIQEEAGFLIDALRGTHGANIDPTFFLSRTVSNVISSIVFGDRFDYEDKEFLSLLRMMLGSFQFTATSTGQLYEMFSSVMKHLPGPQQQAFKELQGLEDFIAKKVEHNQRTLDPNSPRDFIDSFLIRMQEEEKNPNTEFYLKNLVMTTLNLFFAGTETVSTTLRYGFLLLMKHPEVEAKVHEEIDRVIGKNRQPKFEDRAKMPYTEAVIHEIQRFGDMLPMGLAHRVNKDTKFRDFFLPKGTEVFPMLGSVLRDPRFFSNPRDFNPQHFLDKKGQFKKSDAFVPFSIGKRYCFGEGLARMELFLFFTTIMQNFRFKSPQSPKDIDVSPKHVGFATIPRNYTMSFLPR
Text: The above-discussed approach regarding evaluation of selectivity, potency and inhibition parameters of human CYP2A6 by t-CA and structural analogs thereof may be similarly applied to evaluation of the same parameters with regard to CYP2A13.

CYP2A6 [7] = molecular target: T1, CYP2A6; assay: IC50 for inhibition of CYP2A6, coumarin hydroxylase activity (7-hydroxycoumarin fluorescence); conditions: Table 1B, structural analogs of CA
Text: as §1
Data was fit using GraphPad Prism.

CYP2A6 [8] = molecular target: T2, CYP2A6; assay: Spectral ligand binding (KS) to purified CYP2A6 expressed in Escherichia coli; conditions: read-out: Ks
Experimental: as §2, §3

- time-dependent inhibition of CYP2A6, result in words (CYP2A6 [5]): not to be time-dependent inhibitors
Structure (SMILES): Cc1ccccc1C=CC=O [2-methyl-CA]

- IC50 (CYP2A6 [1]): 15.1 µM
- Kd (CYP2A6 [2]): 47.5 µM
- kinact (CYP2A6 [3]): 0.00372 s⁻¹
- kinact/KI (CYP2A6 [3]): 267 M⁻¹ s⁻¹
- Fold difference (with respect to CA) (CYP2A6 [5]): 11.2
- time-dependent inhibition of CYP2A6, result in words (CYP2A6 [5]): more potent inhibitors than t-CA
- Ki (CYP2A6 [6]): 13.9 µM
- Ki (recombinant CYP2A13): 30.9 µM
- kinact (recombinant CYP2A13): 0.00203 s⁻¹
- kinact/KI (recombinant CYP2A13): 67.8 M⁻¹ s⁻¹
Structure (SMILES): O=CC=Cc1ccccc1[N+](=O)[O-] [2-nitro-CA, 2-nitrocinnamaldehyde]

- IC50 (CYP2A6 [1]): 410 µM
- kinact (CYP2A6 [3]): 0.00138 s⁻¹
- kinact/KI (CYP2A6 [3]): 15.5 M⁻¹ s⁻¹
- Fold difference (with respect to CA) (CYP2A6 [5]): 0.65
- Ki (CYP2A6 [6]): 89.6 µM
Structure (SMILES): O=CC=Cc1cccc([N+](=O)[O-])c1 [3-nitro-CA, 3-nitrocinnamaldehyde]

- IC50 (CYP2A6 [1]): 308 µM
- kinact (CYP2A6 [3]): 0.00065 s⁻¹
- kinact/KI (CYP2A6 [3]): 7 M⁻¹ s⁻¹
- Fold difference (with respect to CA) (CYP2A6 [5]): 0.29
- Ki (CYP2A6 [6]): 92.1 µM
Structure (SMILES): O=CC=Cc1ccc([N+](=O)[O-])cc1 [4-nitro-CA, 4-nitrocinnamaldehyde]

- IC50 (CYP2A6 [1]): 8 µM
Structure (SMILES): ON=CC=Cc1ccccc1 [Cinnamaldehyde oxime]

- IC50 (CYP2A6 [1]): > 2500 µM
Structure (SMILES): O=C(O)/C=C/c1ccccc1 [cinnamic acid, reference compound]

More lines, now with the values behind:

Structure (SMILES): O=C/C=C/c1c(F)cccc1F [2,6-difluoro-CA, 2,6-difluorocinnamaldehyde]
- IC50 (CYP2A6 [1]): 3.9 µM
- Kd (CYP2A6 [2]): 7.8 µM
- kinact (CYP2A6 [3]): 0.00407 s⁻¹
- kinact/KI (CYP2A6 [3]): 86.2 M⁻¹ s⁻¹
- Log P [4]: 2.3
- Fold difference (with respect to CA) (CYP2A6 [5]): 3.6
- time-dependent inhibition of CYP2A6, result in words (CYP2A6 [5]): more potent inhibitors than t-CA
- Ki (CYP2A6 [6]): 47.2 µM

Structure (SMILES): O=C/C=C/c1ccccc1O [2-hydroxy-t-CA]
- time-dependent inhibition of CYP2A6, result in words (CYP2A6 [5]): not to be time-dependent inhibitors

Structure (SMILES): O=C/C=C/c1ccc(Br)cc1 [4-bromo-CA]
- IC50 (CYP2A6 [7]): 58.1 µM

Structure (SMILES): O=C/C=C/c1ccc(Cl)cc1 [4-chloro-CA]
- Kd (CYP2A6 [8]): 48.9 µM
- IC50 (CYP2A6 [7]): 30.1 µM

Structure (SMILES): CCN(CC)c1ccc(/C=C/C=O)cc1 [4-diethylamino-CA]
- IC50 (CYP2A6 [7]): 451 µM

Structure (SMILES): CN(C)c1ccc(/C=C/C=O)cc1 [4-dimethylamino-CA]
- IC50 (CYP2A6 [7]): 100 µM

Structure (SMILES): O=C/C=C/c1ccc(F)cc1 [4-fluoro-CA]
- IC50 (CYP2A6 [7]): 30.1 µM

Structure (SMILES): C/C(C=O)=C\c1ccc(C(C)(C)C)cc1 [4-t-butyl-α-methyl-CA]
- IC50 (CYP2A6 [7]): 348 µM

Structure (SMILES): OC/C=C/c1ccccc1 [cinnamic alcohol, reference compound]
- IC50 (CYP2A6 [1]): 354 ± 4.4 µM
